One molecule from patent US10258040B2, “Use of combinations comprising host defense inducers and biological control agents for controlling bacterial harmful organisms in useful plants” (Bayer CropScience Aktiengesellschaft, priority 2013, dated 2019) can be followed below.

The test system of test [1] is Pseudomonas syringae pv. tomato. As to the kind of experiment: in vivo preventive test on Pseudomonas syringae pv. tomato (tomatoes). As to conditions: sprayed one week before inoculation, evaluated 1 week after inoculation. As to the method:
When the percentage of inhibition observed for the combination is greater than E, there is a synergistic effect. • Solvent: deionized water • tested compounds: […] To test for preventive activity, young plants are sprayed with the prepared compounds at three different rates of application. One week after application, the plants are inoculated with an aqueous suspension of Pseudomonas syringae pv. tomato. Inoculated plants are placed in a greenhouse chamber at 25° C. at a relative atmospheric humidity of 90%.

The test system of test [2] is Potato. In words: potato field seed/soil treatment test: plant and stem number, tuber weight, tuber grading. As to conditions: T2: dose 12/100 kg seed, ST.
Protocol: (§1) • Solvent: water • Tested compounds: Isotianil (FS200 formulation) at 30/24/12 ml/100 KG Potato Seed • Penflufen (Emesto FS240 formulation) at 10 ml/100 KG Potato Seed • Serenade ASO (Bacillus subtilis QST 713 strain/SC/1.34%) 5 Litres/ha (200 ml/area sown under 100 KG Seed)
(§2) To test for seed (tuber) treatment activity mixtures of Isotianil FS200 and Serenade ASO SC in combination with an optional further fungicide, ie Potato tubers are selected having reasonable Streptomyces scabies infestation. Seed was treated by spray on the tubers with hand knapsack sprayer using total volume of slurry 1500 ml/100 Kg Seed. Seed treatment was done with Isotianil FS 200 alone and in tank-mix with Penflufen.
(§3) Serenade ASO SC 1.34% @ 5000 ml/ha of formulated product was sprayed in the furrows just before the sowing of seeds. 100 KG seeds are sown on an area of 400 m^2 and Serenade ASO @ 200 ml formulated product was used in this test. Seed treated with Isotianil and optional Penflufen as method described above was used in combination with soil application of Serenade ASO in furrows before sowing. This study was conducted in natural field conditions chamber and observations for Streptomyces scabies infestation on potato was taken at the time of harvest.
(§4) The test is evaluated at harvest of potato crop.
Test [3] relates to Streptomyces scabies. In words: in vivo preventive (seed growth test) test on Streptomyces scabies (potato), scab efficacy at harvest. As to conditions: T2: dose 12/100 kg seed, ST, natural field conditions.
Protocol: as §1, §2, §3, §4

`N#Cc1ccccc1NC(=O)c1snc(Cl)c1Cl` [(A.2) Isotianil, isotianil]: the “Efficacy in % found” value in test [1] (application rate 50 g a.i.) is reported as 6%. In addition, in test [1] (application rate 100 g a.i.), the “Efficacy in % found” value was 0%. For the same molecule, the “Efficacy in % found” value in test [1] (application rate 200 g a.i.) stood at 0%. In test [2] (potato tubers at harvest), the “% age Grading Large” value is given as 34%, the “% age Grading Small” value is given as 29% and the “% age Grading medium” value is on record as 37%. In test [2] (potato, field), the “% age increase/dicrease over conrol, No. of Plants/5 meter” value turned out to be 3%; the “% age increase/dicrease over conrol, No. of stems/meter” value is 7%; the “% age increase/dicrease over conrol, Weight of tuber/5 meter” value stood at 11%. Also, the “% age Efficacy Scab” value in test [3] was 68%.
